Measured values as given in PMC3717276, “Optimization and validation of mitochondria-based functional assay as a useful tool to identify BH3-like molecules selectively targeting anti-apoptotic Bcl-2 proteins” (BMC Biotechnology, 2013).
One block for each molecule: values may come before it. Ends that are not written are not given here.

Key:
Bcl-xL [1] = target: T1, Bcl-xL (Homo sapiens, UniProt Q07817, DEL45-85); experiment: SPR competitive solution binding assay (immobilized Bim BH3 peptide); settings: read-out: SPR Bcl-xL IC50[nM] ± SD
T1 construct: 8xHis (pHis-TEV vector) (N); made in house; host or cells: E. coli BL21(DE3)
T1 sequence (Q07817 with tags, fused parts or gaps DEL45-85): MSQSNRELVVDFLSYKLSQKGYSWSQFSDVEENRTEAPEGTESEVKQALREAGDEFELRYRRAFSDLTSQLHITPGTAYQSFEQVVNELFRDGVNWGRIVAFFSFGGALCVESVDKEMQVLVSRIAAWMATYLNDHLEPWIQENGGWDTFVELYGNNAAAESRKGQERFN
Method: Lysis buffer contained 50 mM Tris, pH 7.5, 200 mM NaCl, 0.1% BME and Leupectin/Aprotin, while protein was eluted in buffer containing 20 mM Tris, pH7.5, 150 mM NaCl and 5 mM DTT.
(§1) Determination of kon, koff and Kd were calculated by simultaneous non-linear regression using BIAevaluation software (BIAcore Life Sciences).
(§2) IC50 values were determined by Non-linear Least Squares analysis using Graph Pad Prism 5.0 software.

Bcl-xL [2] = target: T1, Bcl-xL; experiment: FP competitive binding assay (FAM-Bak tracer); settings: read-out: FP assay Bcl-xL Ki[nM] ± SD
[3] = tested on: mitochondria isolated from 2LMP cells; experiment: Permeabilization of mitochondrial outer membrane (MOMP), Cytochrome C and Smac release by Western blot; assay type: biochemical, human; settings: agent alone at indicated concentrations, 100 mM KCl buffer, 37°C, 60 min, Figure 3A
Method: Mitochondria were isolated from breast cancer cells. Cells were harvested by centrifugation at 1200 g (Microcentrifuge 5415R from Eppendorf) for 5 min at 4°C and then washed with ice-cold PBS. Cell pellets were resuspended in 400 μl of mitochondria isolation buffer (MIB: pH 7.4; 0.1 mM EDTA, 10 mM Tris–HCl, 250 mM Sucrose) freshly added 1 mM PMSF and Protease Inhibitor Cocktail (Roche). Cell suspensions were then homogenized with 40 strokes in a Dounce Tissue Grinder on ice and centrifuged at 1200 g for 10 min at 4°C. Supernatants were centrifuged at 12000 g for 10 min at 4°C. Pellet enriched in mitochondria was washed three times with MIB, spun down at 12000 g for 10 min at 4°C. […] Protein concentrations were determined using Bradford Protein Assay (Protein Assay Kit II, Cat# 500–0002, Bio-Rad). […]
Supernatant samples and mitochondrial pellet samples were subjected to protein separation by SDS-PAGE. After transfer to Polyvinylidene fluoride (PVDF) membranes, Cytochrome C, Smac proteins and loading control (Cytochrome C Oxidase IV, COX IV) were analyzed using the following primary antibodies: anti-Cytochrome C polyclonal antibody (1:500; #4272; Cell Signaling Techonology), anti-Smac/DIABLO polyclonal antibody (1:500; PC574; Calbiochem), anti-COX IV monoclonal antibody (3E11; 1:1000; #4850; Cell Signaling Techonology). […]

Mcl-1 [4] = target: T2, Mcl-1 (Homo sapiens, UniProt Q07820); experiment: SPR competitive solution binding assay (immobilized Bim BH3 peptide); settings: read-out: SPR Mcl-1 IC50[nM] ± SD
T2 construct: encoding amino acid residues of 171–327; 8xHis (pHis-TEV vector) (N); made in house; host or cells: E. coli BL21(DE3)
T2 sequence (Q07820 171-327): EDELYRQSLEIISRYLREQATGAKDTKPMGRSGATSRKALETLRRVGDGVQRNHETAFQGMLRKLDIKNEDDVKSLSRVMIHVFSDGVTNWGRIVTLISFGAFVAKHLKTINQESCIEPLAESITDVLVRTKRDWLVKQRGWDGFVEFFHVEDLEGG
Method: The Mcl-1fragment (NM_021960) encoding amino acid residues of 171–327 was cloned into the pHis-TEV vector. Mcl-1 protein with an N-terminal 8×His tag was produced in E. coli BL21(DE3).
as §1, §2

Mcl-1 [5] = target: T2, Mcl-1; experiment: FP competitive binding assay (FAM-Bid tracer); settings: read-out: FP assay Mcl-1 Ki[nM] ± SD

- IC50 (Bcl-xL [1]): > 30000 nM
- Ki (Bcl-xL [2]): > 10000 nM
Molecule: PAELEVECATQLRRFGDKLNFRQKLL [Noxa]

Molecule: CN(C)CC[C@H](CSc1ccccc1)Nc1ccc(S(=O)(=O)NC(=O)c2ccc(N3CCN(Cc4ccccc4-c4ccc(Cl)cc4)CC3)cc2)cc1[N+](=O)[O-] [ABT-737]
- Cytochrome C and Smac release from 2LMP mitochondria [3]: effectively induced Cytochrome C and Smac release

Molecule: CSCC[C@H](NC(=O)[C@H](CCCNC(=N)N)NC(=O)[C@H](CCCNC(=N)N)NC(=O)[C@H](CC(C)C)NC(=O)[C@H](CCC(=O)O)NC(=O)[C@H](CCCNC(=N)N)NC(=O)CNC(=O)[C@H](Cc1ccc(O)cc1)NC(=O)[C@H](CCCNC(=N)N)NC(=O)[C@H](CCC(N)=O)NC(=O)[C@H](C)NC(=O)[C@H](C)NC(=O)[C@H](Cc1c[nH]c2ccccc12)NC(=O)[C@H](CC(C)C)NC(=O)[C@@H](N)CC(N)=O)C(=O)N[C@@H](CO)C(=O)N[C@@H](CC(=O)O)C(=O)N[C@@H](CCC(=O)O)C(=O)N[C@@H](Cc1ccccc1)C(=O)N[C@H](C(=O)N[C@@H](CC(=O)O)C(=O)N[C@@H](CO)C(=O)N[C@@H](Cc1ccccc1)C(=O)N[C@@H](CCCCN)C(=O)N[C@@H](CCCCN)C(=O)NCC(=O)O)C(C)C [Bad]
- IC50 (Mcl-1 [4]): > 30000 nM
- Ki (Mcl-1 [5]): > 20000 nM
